In US10954348B2, “Biocompatible nanoparticle and use thereof” (KYUNGPOOK NATIONAL UNIVERSITY INDUSTRY-ACADEMIC COOPERATION …, priority 2016, dated 2021):
“Also recorded” adds a separate entry of the source.

Legend:
[1] = test system: Colorectal cancer mouse tumor models (CT26 tumor model); experiment: In vivo tumor growth inhibition; conditions: CT26 tumor mice, 200 μg doxorubicin i.v. three times at intervals of two days, over 33 days, versus PBS blank group
Experimental: Experiments were conducted to compare and investigate the ability of doxorubicin-conjugated dextran-based nanoparticles whether the nanoparticles could be used as a therapeutic agent capable of inhibiting tumor growth. Colorectal cancer mouse tumor models (CT26 tumor model) were used as tumor models in the experiments. 5×10^6 cells were injected into the flank of mice, and after 10 days, the tumors were visually recognized, and the mice were used for the experiments. The experiments were started by dividing the animal models into a blank group treated with PBS, a group treated with free doxorubicin (free DOX), and a group treated with doxorubicin-conjugated PEG-DNP (DOX@PEG-DNP)). The number of mice corresponding to each group was three, and each administration material was administered to the mouse tumor models via intravenous injection three times at intervals of two days. Here, the amounts of doxorubicin administered to the group treated with free doxorubicin and the group treated with doxorubicin-conjugated PEG-DNP (DOX@PEG-DNP) were 200 μg.
The size of tumors and the weight of mice in the tumor model were checked over 33 days, and the measurement results were monitored and compared. […] As time passed, there was a slight difference in body weight among the groups, but this was thought to be due to the difference of tumor size in the respective groups.

[2] = type: in vivo; conditions: CT26 tumor mice, 200 μg doxorubicin i.v. three times at intervals of two days, over 33 days

COc1cccc2c1C(=O)c1c(O)c3c(c(O)c1C2=O)C[C@@](O)(C(=O)CO)C[C@@H]3O[C@H]1C[C@H](N)[C@H](O)[C@H](C)O1 [free doxorubicin, doxorubicin]
tumor growth inhibition [1]: the tumor growth rate of only one of three mice was not inhibited; also recorded: surely inhibited the tumor growth rate compared with the blank group
body weight change [2]: the body weight was not rapidly reduced
